Reference: PubChem BioAssay (NCI)
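How tested: cells in 96-well plates exposed to compound for 48 hours at five concentrations. The concentration for full growth arrest is given as TGI.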

Tests used:
Assay in all cases: inhibition of tumour cell growth, NCI panel, 48 h
MDA-MB-231 breast = test system: MDA-MB-231 breast
OVCAR-5 ovarian = test system: OVCAR-5 ovarian
LOX IMVI melanoma = test system: LOX IMVI melanoma
RPMI-8226 leukemia = test system: RPMI-8226 leukemia
SF-539 CNS = test system: SF-539 CNS
MCF7 breast = test system: MCF7 breast
MDA-N = test system: MDA-N
K-562 leukemia = test system: K-562 leukemia
SN12C renal = test system: SN12C renal
NCI/ADR-RES ovarian = test system: NCI/ADR-RES ovarian
OVCAR-4 ovarian = test system: OVCAR-4 ovarian
HCT-15 colon = test system: HCT-15 colon
A498 renal = test system: A498 renal
ACHN renal = test system: ACHN renal
SR leukemia = test system: SR leukemia
NCI-H23 lung = test system: NCI-H23 lung
786-0 renal = test system: 786-0 renal
PC-3 prostate = test system: PC-3 prostate
KM12 colon = test system: KM12 colon
MOLT-4 leukemia = test system: MOLT-4 leukemia
SK-OV-3 ovarian = test system: SK-OV-3 ovarian
CAKI-1 renal = test system: CAKI-1 renal
UACC-62 melanoma = test system: UACC-62 melanoma
RXF 393 renal = test system: RXF 393 renal
A549 NSCLC = test system: A549 NSCLC
HCT-116 colon = test system: HCT-116 colon
IGROV1 ovarian = test system: IGROV1 ovarian
SK-MEL-28 melanoma = test system: SK-MEL-28 melanoma
SF-295 CNS = test system: SF-295 CNS
SNB-75 CNS = test system: SNB-75 CNS
OVCAR-3 ovarian = test system: OVCAR-3 ovarian
BT-549 breast = test system: BT-549 breast
SK-MEL-2 melanoma = test system: SK-MEL-2 melanoma
NCI-H460 lung = test system: NCI-H460 lung
MALME-3M melanoma = test system: MALME-3M melanoma
MDA-MB-435 = test system: MDA-MB-435
EKVX NSCLC = test system: EKVX NSCLC
SF-268 CNS = test system: SF-268 CNS
SK-MEL-5 melanoma = test system: SK-MEL-5 melanoma
NCI-H522 lung = test system: NCI-H522 lung
DU-145 prostate = test system: DU-145 prostate
UACC-257 melanoma = test system: UACC-257 melanoma
SNB-19 CNS = test system: SNB-19 CNS
HS 578T breast = test system: HS 578T breast
U251 CNS = test system: U251 CNS
COLO 205 colon = test system: COLO 205 colon
CCRF-CEM leukemia = test system: CCRF-CEM leukemia
HOP-92 NSCLC = test system: HOP-92 NSCLC
M14 melanoma = test system: M14 melanoma
SW-620 colon = test system: SW-620 colon
OVCAR-8 ovarian = test system: OVCAR-8 ovarian
HL-60(TB) leukemia = test system: HL-60(TB) leukemia
HT29 colon = test system: HT29 colon
T-47D breast = test system: T-47D breast
UO-31 renal = test system: UO-31 renal
TK-10 renal = test system: TK-10 renal
HOP-62 NSCLC = test system: HOP-62 NSCLC
NCI-H226 lung = test system: NCI-H226 lung

Cc1[nH]c2ccccc2c1C=Nc1ccc(Oc2ccccc2)cc1
TGI (MDA-MB-231 breast): 32.2 µM | TGI (OVCAR-5 ovarian): 30 µM | TGI (LOX IMVI melanoma): 32.8 µM | TGI (RPMI-8226 leukemia): 35.4 µM | TGI (SF-539 CNS): 33 µM | TGI (MCF7 breast): 39.7 µM | TGI (MDA-N): 31.9 µM | TGI (K-562 leukemia): 58.1 µM | TGI (SN12C renal): 31.9 µM | TGI (NCI/ADR-RES ovarian): 38.8 µM | TGI (OVCAR-4 ovarian): 34.6 µM | TGI (HCT-15 colon): 35 µM | TGI (A498 renal): 37 µM | TGI (ACHN renal): 30.8 µM | TGI (SR leukemia): 51 µM | TGI (NCI-H23 lung): 32.1 µM | TGI (786-0 renal): 30.3 µM | TGI (PC-3 prostate): 26.9 µM | TGI (KM12 colon): 31.4 µM | TGI (MOLT-4 leukemia): 35.7 µM | TGI (SK-OV-3 ovarian): 32 µM | TGI (CAKI-1 renal): 30.4 µM | TGI (UACC-62 melanoma): 32 µM | TGI (RXF 393 renal): 31.7 µM | TGI (A549 NSCLC): 32.3 µM | TGI (HCT-116 colon): 31.3 µM | TGI (IGROV1 ovarian): 28.3 µM | TGI (SK-MEL-28 melanoma): 34.7 µM | TGI (SF-295 CNS): 29.1 µM | TGI (SNB-75 CNS): 26.1 µM | TGI (OVCAR-3 ovarian): 27.6 µM | TGI (BT-549 breast): 35.5 µM | TGI (SK-MEL-2 melanoma): 34.3 µM | TGI (NCI-H460 lung): 40 µM | TGI (MALME-3M melanoma): 34.6 µM | TGI (MDA-MB-435): 31.8 µM | TGI (EKVX NSCLC): 27.4 µM | TGI (SF-268 CNS): 34.1 µM | TGI (SK-MEL-5 melanoma): 28.9 µM | TGI (NCI-H522 lung): 31.6 µM | TGI (DU-145 prostate): 30.4 µM | TGI (UACC-257 melanoma): 31.8 µM | TGI (SNB-19 CNS): 33.1 µM | TGI (HS 578T breast): 52 µM | TGI (U251 CNS): 29.3 µM | TGI (COLO 205 colon): 30.1 µM | TGI (CCRF-CEM leukemia): 28.9 µM | TGI (HOP-92 NSCLC): 31.2 µM | TGI (M14 melanoma): 30.3 µM | TGI (SW-620 colon): 42.6 µM | TGI (OVCAR-8 ovarian): 43.4 µM | TGI (HL-60(TB) leukemia): 32.3 µM | TGI (HT29 colon): 31.3 µM | TGI (T-47D breast): 40.5 µM | TGI (UO-31 renal): 24.4 µM | TGI (TK-10 renal): 30.2 µM

CC1(C)CCc2c(c(N=Nc3ccccc3)c3ccccc3c2O)O1
TGI (MDA-MB-231 breast): 67 µM | TGI (OVCAR-5 ovarian): > 100 µM | TGI (LOX IMVI melanoma): 54 µM | TGI (RPMI-8226 leukemia): > 100 µM | TGI (SF-539 CNS): 69.6 µM | TGI (MCF7 breast): 47 µM | TGI (MDA-N): 41.7 µM | TGI (K-562 leukemia): > 100 µM | TGI (SN12C renal): 40.1 µM | TGI (NCI/ADR-RES ovarian): > 100 µM | TGI (OVCAR-4 ovarian): > 100 µM | TGI (HCT-15 colon): > 100 µM | TGI (A498 renal): 44.1 µM | TGI (ACHN renal): 33.5 µM | TGI (NCI-H23 lung): > 100 µM | TGI (786-0 renal): 30.8 µM | TGI (PC-3 prostate): 71.8 µM | TGI (KM12 colon): > 100 µM | TGI (MOLT-4 leukemia): > 100 µM | TGI (SK-OV-3 ovarian): 50.3 µM | TGI (HOP-62 NSCLC): > 100 µM | TGI (CAKI-1 renal): 69.1 µM | TGI (UACC-62 melanoma): > 100 µM | TGI (RXF 393 renal): 33.6 µM | TGI (A549 NSCLC): > 100 µM | TGI (HCT-116 colon): 51.2 µM | TGI (IGROV1 ovarian): > 100 µM | TGI (SK-MEL-28 melanoma): > 100 µM | TGI (SF-295 CNS): 57.3 µM | TGI (OVCAR-3 ovarian): 53.1 µM | TGI (BT-549 breast): > 100 µM | TGI (SK-MEL-2 melanoma): 34.5 µM | TGI (NCI-H460 lung): 53.3 µM | TGI (MALME-3M melanoma): > 100 µM | TGI (MDA-MB-435): 83.5 µM | TGI (EKVX NSCLC): 59.5 µM | TGI (SF-268 CNS): > 100 µM | TGI (SK-MEL-5 melanoma): > 100 µM | TGI (NCI-H522 lung): > 100 µM | TGI (DU-145 prostate): 83 µM | TGI (UACC-257 melanoma): 39.8 µM | TGI (SNB-19 CNS): > 100 µM | TGI (HS 578T breast): > 100 µM | TGI (U251 CNS): 61.3 µM | TGI (COLO 205 colon): > 100 µM | TGI (CCRF-CEM leukemia): > 100 µM | TGI (HOP-92 NSCLC): 63.9 µM | TGI (M14 melanoma): 88.8 µM | TGI (NCI-H226 lung): > 100 µM | TGI (SW-620 colon): > 100 µM | TGI (OVCAR-8 ovarian): > 100 µM | TGI (HL-60(TB) leukemia): > 100 µM | TGI (HT29 colon): 34 µM | TGI (T-47D breast): > 100 µM | TGI (UO-31 renal): 60.3 µM | TGI (TK-10 renal): 46.1 µM
